Data taken from US20250163043A1 (TRANSTHERA SCIENCES (NANJING), INC., priority 2021, published 2025).
pIC50: −log10 of the molar value.

Experiments:
CDK9/CycT1 [1] = biological target: T1, CDK9/CycT1 (Homo sapiens, UniProt P50750); test: Off-chip mobility shift assay (MSA) on CDK9/CycT1; assay type: biochemical; design: Full-length human CDK9 [1-372(end) amino acids of; host or cells: baculovirus expression system; settings: 4-point concentration (0.0016, 0.008, 0.04, 0.2 uM), ATP 10 μM, reaction time 5 hours, read-out: CDK9/CycT1/nM (inhibitory activity)
T1 sequence (P50750 whole entry): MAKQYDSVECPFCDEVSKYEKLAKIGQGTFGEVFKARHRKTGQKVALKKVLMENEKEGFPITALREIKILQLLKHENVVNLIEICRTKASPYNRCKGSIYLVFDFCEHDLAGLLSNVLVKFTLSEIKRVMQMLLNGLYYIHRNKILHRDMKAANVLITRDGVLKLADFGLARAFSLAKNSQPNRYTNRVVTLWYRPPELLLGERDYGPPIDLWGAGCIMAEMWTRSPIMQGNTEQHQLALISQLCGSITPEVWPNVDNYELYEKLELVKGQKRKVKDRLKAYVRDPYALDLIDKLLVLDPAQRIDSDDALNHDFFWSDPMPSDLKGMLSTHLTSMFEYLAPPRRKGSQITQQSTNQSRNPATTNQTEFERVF
T1 sequence (O60563 whole entry partner): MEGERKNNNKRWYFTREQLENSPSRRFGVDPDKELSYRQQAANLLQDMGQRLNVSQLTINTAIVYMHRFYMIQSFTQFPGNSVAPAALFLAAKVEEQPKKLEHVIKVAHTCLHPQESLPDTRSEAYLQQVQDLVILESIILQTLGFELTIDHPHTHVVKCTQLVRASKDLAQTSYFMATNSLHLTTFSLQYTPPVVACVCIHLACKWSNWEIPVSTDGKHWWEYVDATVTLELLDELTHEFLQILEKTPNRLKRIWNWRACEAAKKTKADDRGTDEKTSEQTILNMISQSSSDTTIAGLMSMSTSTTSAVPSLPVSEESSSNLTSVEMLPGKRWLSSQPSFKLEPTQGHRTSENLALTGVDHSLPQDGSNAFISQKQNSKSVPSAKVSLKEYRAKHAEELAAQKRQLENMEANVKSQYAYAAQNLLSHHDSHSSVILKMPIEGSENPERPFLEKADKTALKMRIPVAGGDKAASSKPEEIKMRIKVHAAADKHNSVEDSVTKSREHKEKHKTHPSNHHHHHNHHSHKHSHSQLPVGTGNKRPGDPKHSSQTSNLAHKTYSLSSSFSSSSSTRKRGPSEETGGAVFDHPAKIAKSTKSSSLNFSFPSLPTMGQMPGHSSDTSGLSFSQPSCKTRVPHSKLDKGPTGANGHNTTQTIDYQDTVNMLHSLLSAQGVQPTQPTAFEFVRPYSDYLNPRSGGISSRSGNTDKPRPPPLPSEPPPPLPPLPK
Protocol: Prepare 100× concentrated Test compound stock solutions with DMSO. Then, Dilute the solution 25 times with Assay Buffer (20 mM HEPES, 0.01% Triton X-100, 2 mM DTT, pH7.5) to prepare 4× test compound solutions.
Test compounds were evaluated at 4-point concentration (0.0016, 0.008, 0.04, 0.2 uM). • 1) Mix 5 μL of 4× test compound solution with 5 μL of 4× substrate/ATP/Metal solution and 10 μL of 2× kinase solution in 384-well polypropylene plate. Incubate for 5 hours at room temperature. • 2) Add 70 μL of Termination Buffer (QuickScout Screening Assist MSA; Carna Biosciences) to stop the reaction. • 3) Separate and detect unphosphorylated/phosphorylated substrate peptides in the reactant using LabChip system (Perkin Elmer). • 4) Evaluate kinase reaction from product ratio (P/(P+S)) calculated by peak height of unphosphorylated substrate(S) and peak height of phosphorylated substrate (P).

CDK9/CycT1 [2] = biological target: T1, CDK9/CycT1; test: ADP-Glo kinase assay on CDK enzymatic activity, CDK9/CycT1; assay type: biochemical; settings: 10 concentrations from 10 μM, 4-fold, 60 min room temperature
Summary of the method: (§1)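 Enzyme activity was measured by ADP-Glo luminescence following 60 min turnover of CDK tide peptide at room temperature. Compounds spanned ten 4-fold dilutions from 10 μM final, with 0.5% DMSO.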

CDK5/p25NCK = CDK5/p25NCK (Homo sapiens, UniProt Q00535); test: ADP-Glo kinase assay on CDK enzymatic activity, CDK5/p25NCK; assay type: biochemical; settings: 10 concentrations from 10 μM, 4-fold, 60 min room temperature
CDK5/p25NCK, sequence (Q00535 whole entry, species assumed): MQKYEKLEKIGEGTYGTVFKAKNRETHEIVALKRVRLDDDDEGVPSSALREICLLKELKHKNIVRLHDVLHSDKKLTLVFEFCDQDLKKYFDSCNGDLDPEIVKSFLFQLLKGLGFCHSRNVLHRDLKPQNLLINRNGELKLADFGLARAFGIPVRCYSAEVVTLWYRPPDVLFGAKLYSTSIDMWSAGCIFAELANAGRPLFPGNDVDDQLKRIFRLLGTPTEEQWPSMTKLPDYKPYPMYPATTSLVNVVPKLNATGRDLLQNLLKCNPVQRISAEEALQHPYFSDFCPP
CDK5/p25NCK, sequence (Q15078 99-307 partner limits assumed, species assumed): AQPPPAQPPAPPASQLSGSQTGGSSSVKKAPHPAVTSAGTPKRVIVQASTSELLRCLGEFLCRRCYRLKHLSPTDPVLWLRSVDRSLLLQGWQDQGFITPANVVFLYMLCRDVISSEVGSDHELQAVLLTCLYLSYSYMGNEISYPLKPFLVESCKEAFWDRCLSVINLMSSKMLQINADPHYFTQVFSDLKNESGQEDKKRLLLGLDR
Summary of the method: as §1

[3] = tested on: MV-4-11 (human myelomonocytic leukemia cells); test: CCK-8 cell proliferation assay, MV-4-11; assay type: cell-based; settings: MV4-11, 24 h incubation, 11 concentrations from 5000 nM, 3-fold, read-out: MV-4-11 cell proliferation IC50 (class)
CDK2/CycA2 = CDK2/CycA2 (Homo sapiens, UniProt P24941); test: ADP-Glo kinase assay on CDK enzymatic activity, CDK2/CycA2; assay type: biochemical; settings: 10 concentrations from 10 μM, 4-fold, 60 min room temperature
Summary of the method: as §1

CDK3/CycE1 = CDK3/CycE1 (Homo sapiens, UniProt Q00526); test: ADP-Glo kinase assay on CDK enzymatic activity, CDK3/CycE1; assay type: biochemical; settings: 10 concentrations from 10 μM, 4-fold, 60 min room temperature
CDK3/CycE1, sequence (Q00526 whole entry, species assumed): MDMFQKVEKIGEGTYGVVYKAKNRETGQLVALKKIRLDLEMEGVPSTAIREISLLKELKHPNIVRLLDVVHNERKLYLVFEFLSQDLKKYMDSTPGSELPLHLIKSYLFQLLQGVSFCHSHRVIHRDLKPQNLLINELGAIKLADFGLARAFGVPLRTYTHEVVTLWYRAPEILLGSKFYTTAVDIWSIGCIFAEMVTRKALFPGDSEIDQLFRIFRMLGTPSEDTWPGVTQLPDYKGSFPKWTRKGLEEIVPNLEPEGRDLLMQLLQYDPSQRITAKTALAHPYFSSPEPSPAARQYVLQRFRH
CDK3/CycE1, sequence (P24864 whole entry partner, species assumed): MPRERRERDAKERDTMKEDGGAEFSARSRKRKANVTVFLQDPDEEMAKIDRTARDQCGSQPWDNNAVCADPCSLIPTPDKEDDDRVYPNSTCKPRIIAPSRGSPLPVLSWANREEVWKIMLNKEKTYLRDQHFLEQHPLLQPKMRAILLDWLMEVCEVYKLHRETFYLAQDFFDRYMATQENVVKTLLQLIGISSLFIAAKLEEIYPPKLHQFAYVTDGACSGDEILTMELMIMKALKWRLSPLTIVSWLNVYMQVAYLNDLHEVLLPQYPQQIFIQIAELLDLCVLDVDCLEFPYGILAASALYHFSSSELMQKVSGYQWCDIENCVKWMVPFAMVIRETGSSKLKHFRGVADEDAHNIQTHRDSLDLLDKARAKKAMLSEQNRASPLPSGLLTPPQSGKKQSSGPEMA
Summary of the method: as §1

CDK1/CycE1 = CDK1/CycE1 (Homo sapiens, UniProt P06493); test: ADP-Glo kinase assay on CDK enzymatic activity, CDK1/CycE1; assay type: biochemical; settings: ADP-Glo; 10 concentrations from 10 μM, 4-fold; 60 min room temperature; read-out: CDK1/CycE1/nM (IC50)
CDK1/CycE1, sequence (P06493 whole entry, species assumed): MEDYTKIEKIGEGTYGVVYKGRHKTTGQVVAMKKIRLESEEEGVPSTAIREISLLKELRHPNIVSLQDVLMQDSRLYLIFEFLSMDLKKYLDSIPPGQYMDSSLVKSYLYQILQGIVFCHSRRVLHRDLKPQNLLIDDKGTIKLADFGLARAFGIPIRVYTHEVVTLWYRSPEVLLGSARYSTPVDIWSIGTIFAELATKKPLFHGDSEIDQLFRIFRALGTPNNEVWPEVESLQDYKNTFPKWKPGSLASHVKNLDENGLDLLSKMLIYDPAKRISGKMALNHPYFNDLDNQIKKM
CDK1/CycE1, sequence (P24864 whole entry partner, species assumed): as the sequence (P24864 whole entry partner, species assumed) above
Summary of the method: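 Compounds in 10-point 4-fold dilutions from 10 μM final, preincubated 10 min with kinase, then substrate/ATP added; 60 min reaction at room temperature. ADP-Glo luminescence read.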

Question: For CC(=O)N[C@H]1CC[C@H](Nc2ncc3cc([C@@H](C)O)nc(NC(C)C)c3n2)CC1 [Compound 65, N-((1R,4r)-4-((6-((R)-1-hydroxyethyl)-8-(isopropylamino)pyrido[3,4-d]pyrimidin-2-yl)amino)cyclohexyl)acetamide], which IC50 (CDK9/CycT1 [1]) is on record?
Answer: 21 nM

Question: CC(C)Nc1nc([C@@H](C)O)cc2cnc(NC(=O)[C@@H]3CCCNC3)cc12 [Compound 86, (R)—N-(7-((R)-1-hydroxyethyl)-5-(isopropylamino)-2,6-naphthyridin-3-yl)piperidine-3-carboxamide] was tested. Which IC50 (CDK9/CycT1 [1]) did it give?
Answer: 50 nM

Question: How did the IC50 (CDK9/CycT1 [1]) turn out when CC(C)Nc1nc([C@@H](C)O)cc2cnc(NC[C@H]3CC[C@H](NS(C)(=O)=O)CC3)nc12 [Compound 73, N-((1R,4r)-4-(((6-((R)-1-hydroxyethyl)-8-(isopropylamino)pyrido[3,4-d]pyrimidin-2-yl)amino)methyl)cyclohexyl)methanesulfonamide] was run?
Answer: 61 nM

Question: For CC(C)Nc1nc([C@@H](C)O)cc2cnc(NCC3CCCN(S(C)(=O)=O)C3)nc12 (stereo partly drawn) [Compound 70, (1R)-1-(8-(isopropylamino)-2-(((1-(methylsulfonyl)piperidin-3-yl)methyl)amino)pyrido[3,4-d]pyrimidin-6-yl)ethan-1-ol], which IC50 (CDK9/CycT1 [1]) is on record?
Answer: 61 nM

Question: How did the IC50 (CDK9/CycT1 [1]) turn out when CC(C)Nc1nc([C@@H](C)O)cc2cnc(N[C@H]3CC[C@H](NC4CCOCC4)CC3)nc12 [Compound 74, (R)-1-(8-(isopropylamino)-2-(((1r,4R)-4-((tetrahydro-2H-pyran-4-yl)amino)cyclohexyl)amino)pyrido[3,4-d]pyrimidin-6-yl)ethan-1-ol] was run?
Answer: 19 nM

Question: With CC(C)Nc1nc([C@@H](C)O)cc2cnc(NCC3CCNCC3)nc12 [Compound 84, (R)-1-(8-(isopropylamino)-2-((piperidin-4-ylmethyl)amino)pyrido[3,4-d]pyrimidin-6-yl)ethan-1-ol] as the compound, how does the IC50 (CDK9/CycT1 [1]) read?
Answer: 47 nM

Question: How did the IC50 (CDK9/CycT1 [1]) turn out when CC(C)Nc1nc([C@@H](C)O)cc2cnc(NCCCO)nc12 [Compound 85, (R)-3-((6-(1-hydroxyethyl)-8-(isopropylamino)pyrido[3,4-d]pyrimidin-2-yl)amino)propan-1-ol] was run?
Answer: 64 nM

Question: Which IC50 (CDK9/CycT1 [1]) does the source give for C[C@@H](O)c1nc(NC(C)(C)C)c2nc(N[C@H]3CC[C@H](O)CC3)ncc2c1Cl [Compound 102, (1R,4r)-4-((8-(tert-butylamino)-5-chloro-6-((R)-1-hydroxyethyl)pyrido[3,4-d]pyrimidin-2-yl)amino)cyclohexan-1-ol] here?
Answer: 10 nM

Question: With CC(C)Nc1nc([C@@H](C)O)cc2cnc(N[C@H]3CC[C@H](NC4COC4)CC3)cc12 [Compound 101, (R)-1-(1-(isopropylamino)-7-(((1r,4R)-4-(oxetan-3-ylamino)cyclohexyl)amino)-2,6-naphthyridin-3-yl)ethan-1-ol] as the compound, how does the IC50 (CDK9/CycT1 [1]) read?
Answer: 15 nM

Question: How did the IC50 (CDK9/CycT1 [1]) turn out when CC(C)Nc1nc([C@@H](C)O)cc2cnc(N[C@H]3CC[C@H](NC(=O)CN(C)C)CC3)nc12 [Compound 63, 2-(dimethylamino)-N-((1R,4r)-4-((6-((R)-1-hydroxyethyl)-8-(isopropylamino)pyrido[3,4-d]pyrimidin-2-yl)amino)cyclohexyl)acetamide] was run?
Answer: 14 nM

Question: How did the IC50 (CDK9/CycT1 [1]) turn out when C#Cc1cc2cnc(N[C@H]3CC[C@H](O)CC3)nc2c(NC(C)C)n1 [Compound 93, (1r,4r)-4-((6-ethynyl-8-(isopropylamino)pyrido[3,4-d]pyrimidin-2-yl)amino)cyclohexan-1-ol] was run?
Answer: 7 nM

Question: How did the IC50 (CDK9/CycT1 [1]) turn out when C=Cc1cc2cnc(NC(=O)[C@H]3CCC[C@@H](NC(C)=O)C3)cc2c(NC(C)C)n1 [Compound 99, (1S,3R)-3-acetamido-N-(5-(isopropylamino)-7-vinyl-2,6-naphthyridin-3-yl)cyclohexane-1-carboxamide] was run?
Answer: 29 nM

Question: How did the IC50 (CDK9/CycT1 [2]) turn out when C[C@@H](Nc1nc(C#N)cc2cnc(N[C@H]3CCCNC3)cc12)c1ccccc1 [Compound 147, 1-(((R)-1-phenylethyl)amino)-7-(((S)-piperidin-3-yl)amino)-2,6-naphthyridine-3-carbonitrile] was run?
Answer: 3 nM

Question: What about the IC50 (CDK5/p25NCK) of the same compound?
Answer: 2230 nM

Question: And the pIC50 [3]?
Answer: 6.00 to 6.40

Question: What about the IC50 (CDK2/CycA2) of the same compound?
Answer: 531 nM

Question: And the IC50 (CDK3/CycE1)?
Answer: 215 nM

Question: What about the IC50 (CDK1/CycE1) of the same compound?
Answer: 158 nM

Question: With CC(=O)N[C@H]1CC[C@H](CNc2ncc3cc([C@@H](C)O)nc(NC(C)C)c3n2)CC1 [Compound 72, N-((1R,4r)-4-(((6-((R)-1-hydroxyethyl)-8-(isopropylamino)pyrido[3,4-d]pyrimidin-2-yl)amino)methyl)cyclohexyl)acetamide] as the compound, how does the IC50 (CDK9/CycT1 [1]) read?
Answer: 97 nM

Question: With CC(C)Nc1nc(CO)cc2cnc(N[C@H]3CC[C@H](O)CC3)nc12 [Compound 97, (1r,4r)-4-((6-(hydroxymethyl)-8-(isopropylamino)pyrido[3,4-d]pyrimidin-2-yl)amino)cyclohexan-1-ol] as the compound, how does the IC50 (CDK9/CycT1 [1]) read?
Answer: 17 nM

Question: CC(C)Nc1nc(C#N)cc2cnc(N[C@H]3CC[C@H](C)NC3)nc12 [Compound 107, 8-(isopropylamino)-2-(((3S,6S)-6-methylpiperidin-3-yl)amino)pyrido[3,4-d]pyrimidine-6-carbonitrile] was tested. Which IC50 (CDK9/CycT1 [2]) did it give?
Answer: 18 nM

Question: What about the IC50 (CDK5/p25NCK) of the same compound?
Answer: 435 nM

Question: What about the pIC50 [3] of the same compound?
Answer: 6.00 to 6.40

Question: And the IC50 (CDK2/CycA2)?
Answer: 443 nM

Question: What about the IC50 (CDK3/CycE1) of the same compound?
Answer: 831 nM

Question: What about the IC50 (CDK1/CycE1) of the same compound?
Answer: 947 nM

Question: What does the source list for CC(C)Nc1nc(C#N)cc2cnc(NC3CCNCC3)nc12 [Compound 114, 8-(isopropylamino)-2-(piperidin-4-ylamino)pyrido[3,4-d]pyrimidine-6-carbonitrile]?
Answer: IC50 (CDK9/CycT1 [2]): 9 nM; IC50 (CDK5/p25NCK): 1170 nM; pIC50 [3]: 6.00 to 6.40; IC50 (CDK2/CycA2): 504 nM; IC50 (CDK3/CycE1): 413 nM; IC50 (CDK1/CycE1): 216 nM

Question: For CC(=O)N[C@@H]1CCC[C@H](C(=O)Nc2cc3c(N4CC[C@@H](O)C4)nc(C#N)cc3cn2)C1 [Compound 19, (1S,3R)-3-acetamido-N-(7-cyano-5-((R)-3-hydroxypyrrolidin-1-yl)-2,6-naphthyridin-3-yl)cyclohexane-1-carboxamide], which IC50 (CDK9/CycT1 [2]) is on record?
Answer: 26 nM

Question: What about the IC50 (CDK5/p25NCK) of the same compound?
Answer: 6080 nM

Question: And the pIC50 [3]?
Answer: < 6.00

Question: What about the IC50 (CDK2/CycA2) of the same compound?
Answer: 2370 nM

Question: What about the IC50 (CDK3/CycE1) of the same compound?
Answer: 1470 nM

Question: What does the source list for CC(=O)N[C@@H]1CCC[C@H](C(=O)Nc2cc3c(NC(C)(C)C)nc(C#N)cc3cn2)C1 [Compound 15, (1S,3R)-3-acetamido-N-(5-(tert-butylamino)-7-cyano-2,6-naphthyridin-3-yl)cyclohexane-1-carboxamide]?
Answer: IC50 (CDK9/CycT1 [2]): 1 nM; IC50 (CDK5/p25NCK): 770 nM; pIC50 [3]: 6.00 to 6.40; IC50 (CDK2/CycA2): 182 nM; IC50 (CDK3/CycE1): 273 nM

Question: With COCCN[C@H]1CC[C@H](Nc2cc3c(NC(C)C)nc(C#N)cc3cn2)C1 [Compound 56, 1-(isopropylamino)-7-(((1S,3S)-3-((2-methoxyethyl)amino)cyclopentyl)amino)-2,6-naphthyridine-3-carbonitrile] as the compound, how does the IC50 (CDK9/CycT1 [2]) read?
Answer: 3 nM

Question: And the IC50 (CDK5/p25NCK)?
Answer: 927 nM

Question: What about the pIC50 [3] of the same compound?
Answer: 6.00 to 6.40

Question: And the IC50 (CDK2/CycA2)?
Answer: 656 nM

Question: And the IC50 (CDK3/CycE1)?
Answer: 1110 nM

Question: For CC(C)Nc1nc(C(F)F)cc2cnc(N[C@H]3CC[C@@H](N)C3)cc12 [Compound 53, N7-((1S,3R)-3-aminocyclopentyl)-3-(difluoromethyl)-N^1-isopropyl-2,6-naphthyridine-1,7-diamine], which IC50 (CDK9/CycT1 [2]) is on record?
Answer: 2 nM

Question: What about the IC50 (CDK5/p25NCK) of the same compound?
Answer: 549 nM

Question: What about the pIC50 [3] of the same compound?
Answer: 6.00 to 6.40

Question: What about the IC50 (CDK2/CycA2) of the same compound?
Answer: 161 nM

Question: What about the IC50 (CDK3/CycE1) of the same compound?
Answer: 315 nM

Question: What about the IC50 (CDK1/CycE1) of the same compound?
Answer: 709 nM

Question: Which results are given for CC(=O)N[C@@H]1CCC[C@H](C(=O)Nc2cc3c(NC(CCO)CCO)nc(C#N)cc3cn2)C1 [Compound 18, (1S,3R)-3-acetamido-N-(7-cyano-5-((1,5-dihydroxypentan-3-yl)amino)-2,6-naphthyridin-3-yl)cyclohexane-1-carboxamide]?
Answer: IC50 (CDK9/CycT1 [2]): 15 nM; IC50 (CDK5/p25NCK): > 10000 nM; pIC50 [3]: < 6.00; IC50 (CDK2/CycA2): 3370 nM; IC50 (CDK3/CycE1): > 10000 nM
